Data taken from patent US7495105B2, “Non-racemic mixtures of (S) and (R) enantiomers of N-(2,6-dimethylphenyl)-1-propyl-2-piperidinocarboxamide; related processes and pharmaceutical compositions” (Cristalia Produtos Quimicos Farmaceuticos Ltda., priority 2001, dated 2009).
Marks after values point to notes of the source that are not given here.

Experiments:
[1] = test system: Muscular Activity of the Gastrocnemic Muscle of the Rat; test: Study in motor nervous conduction: gastrocnemius muscle shocks induced by electrical stimulation of the sciatic nerve; assay type: in vivo; details: for IC50 (%) - concentration that inhibits 50% of the amplitude of muscular shocks: 0.1 ml applied to sciatic nerve, stimulation 0.2 Hz, anesthetized Wistar rats; for Power relative to S (−) ropivacaine: from IC50 of gastrocnemic muscle shocks
Protocol: Wistar male rats, weighing from 180 up to 250 g were under anesthesia with sodium pentobarbital (50 mg.kg^1) via i.p. After being submitted to tracheotomy and mechanically ventilated (Harvad Apparatus mod. 681), the animals were positioned on a surgical table (C. F. Palmer), on ventral decubital, and the four paws were fixed onto the surgical table. In the posterior face and near the back paw, the sciatic nerve was carefully dissected on both paws. A pair of platinum electrodes was fixed on the portion near the nerve and connected to a stimulator Grass mod.S88. Thereafter, the Achilles tendon was isolated and fixed to the isometric tension transducer (Grass FT03) by means of a metallic rod. […] 7). The body temperature was constant during the experiment. After stabilization of the preparation, the muscular shocks were registered in the absence (salty) and in the presence of increasing doses of LAs added in the proximity of the nerve. For each test, the anesthetic that socked the nerve was of 0.1 ml. The solutions were solved in physiologic serum at 0.9%, currently the experiment is maintained at 37° C. temperature.
Particularly, in this register, ropivacaine (S(−)ropi) and the non-racemic mixture (25R:75S) were administered in the perineural region. It should be noted the difference in the power and speed action between the anesthetic. In this figure, gastrocnemic shocks of the muscle were induced by electrical stimulation of the sciatic nerve. The segment of this nerve situated in the distal portion to the stimulation electrodes was soaked with 0.1 ml ropivacaine or with the non-racemic mixture of ropivacaine […] in the concentration of 0.06%. The reduction of the amplitude of the muscular shocks is a function of the number of nervous motor fibers under effective action of the anesthetics.
The concentration that inhibits 50% of the amplitude of muscular shocks (IC50) seeks is used for comparative purposes of the power between anesthetics.

[2] = test system: isolated heart of the rat; test: Effects in the electrical activity (ECG) in isolated heart of the rat (Langendorff modified); details: for cardiac toxicity (cardiotoxicity) in relation to ropivacaine: conclusion from isolated rat heart
Source text: In the experiments “in vitro”, adult male Wistar rats were used, weighing from 200 up to 350 g. The animals were slaughtered under anesthesia with ethyl ether. Thereafter, the heart was quickly removed and immersed, at room temperature, on Tyrode solution, composed in mM: NaCl, 120; KCl, 5.4; MgCl2, 1.2; CaCl2, 1.25; NaH2PO4, 2.0; NaHCO3, 27; Glucose, 11. The pH of this solution was adjusted to 7.4±0.02, under bubbling with carbogenic mixture (95% of O2 and 5% of CO2).
The heart was fixed, through the aorta, to a metallic tube and the latter was connected to a peristaltic pump (Milan^R). In order to maintain the feasibility of the preparation, the heart was perfused with a Tyrode solution at a flow of 8 ml.min^−1 maintained at 37° C. The drugs tested were diluted in the perfusion solution in the desired concentration. Thereafter, the heart was immersed in a recipient containing 150 ml of Tyrode solution maintained at 37° C. For registration of the ECG, three pipettes (electrodes), filled in with KCl 1M were positioned inside the chamber, the nearest possible to the heart. The electrical signals generated by the heart were amplified (Amplifier type 3A9) and registered in polygraph (Gould Brush mod.2400). After stabilization of the preparation, the experimental protocol with the infusion of ALs in crescent concentrations (0.1 a 10 μM), at intervals of 5 minutes between them, was started. The heart was perfused during 5 minutes for each concentration. Only one drug was tested for each heart.
The ECG was continuously registered in the absence (control) and in the presence of drugs for analysis. After the infusion of the last concentration, the preparation was washed during 30 minutes with the Tyrode solution without the AL, aiming to evaluate the reversibility of the effect of the drug.

[3] = spinal anesthesia; Gautier et al. 1999; cited from earlier work
[4] = 0.1 to 10 μM, 6 experiments, FIG. 4

SMILES	IC50 (%) - concentration that inhibits 50% of the amplitude of muscular shocks [1]	Power relative to S (−) ropivacaine [1]	power (motor blocking) greater in comparison with ropivacaine ([1]; motor blocking, versus pure ropivacaine) [%]	effect on CF (cardiac frequency) [2, 4]	effect on PR interval [2, 4]	cardiac toxicity (cardiotoxicity) in relation to ropivacaine [2]	effect on ECG of isolated heart ([2]; perfusion with 1 μM)	less potent than racemic bupivacaine [3]	effect on PR interval ([2]; even in the concentration of 10 μM)
CCCN1CCCCC1C(=O)Nc1c(C)cccc1C (racemic) [RS (±) Ropi, (R,S)-N-(2,6-dimethylphenyl)-1-propyl-2-piperidinocarboxamide]	0.036* %	1.94*	~90	greater depressors effect of CF	increase in PR interval	significantly higher cardiotoxicity	–	–	–
CCCN1CCCC[C@@H]1C(=O)Nc1c(C)cccc1C [R (+) Ropi, (R)-N-(2,6-dimethylphenyl)-1-propyl-2-piperidinocarboxamide]	0.043* %	1.63*	–	greater depressors effect of CF	increase in PR interval	significantly higher cardiotoxicity	important blocking of the cardiac vessel	–	–
CCCN1CCCC[C@H]1C(=O)Nc1c(C)cccc1C [S (−) Ropi, (S)-N-(2,6-dimethylphenyl)-1-propyl-2-piperidinocarboxamide]	0.070%	1.0	–	–	–	–	–	about 50%	do not alter the PR interval
